pIC50: −log10 of the molar value.
What was measured:
[1] = Inhibition of HIV reverse transcriptase transfected in HEK293T cells assessed as reduction in viral replication measured at 48 hrs postinfection by luciferase reporter based single-cycle non replicative phenotypic assay; assay type: cell-based; details: Human immunodeficiency virus 1, HEK-293T
[2] = Cytotoxicity against mouse EL4.3 cells assessed as reduction in cell viability by MTT assay; assay type: cell-based

SMILES | pIC50 ([1]; read-out: IC50) | CC50 [2] [µM] | pIC50 [1]
CCc1nnn(Cc2cccc(C#N)c2)c1CCO | < 4.00 | > 100 | 
N#Cc1cccc(Cn2cc(CCO)nn2)c1 | < 4.08 | > 100 | 
CCc1c(CCO)nnn1Cc1cccc(C#N)c1 | < 4.00 | > 100 | 
Cc1ccnc2c1NC(=O)c1cccnc1N2C1CC1 [NEVIRAPINE] |  |  | 7.04
CCc1nnn(Cc2cc(Cl)cc(Cl)c2)c1CCO | 4.14 | > 100 | 
CCc1nn(CCO)nc1C(OC)c1cc(Cl)cc(Cl)c1 (stereo not drawn) | 4.85 | 95.1 | 
CCc1nn(CCO)nc1Cc1cc(C)cc(C)c1 | < 4.00 | > 100 | 
CCc1c(CCO)nnn1Cc1cc(Cl)cc(Cl)c1 | 4.34 | > 100 | 

Continued, in another order:

pIC50 ([1]; read-out: IC50) | SMILES | CC50 [2] [µM] | pIC50 [1]
< 4.00 | CCc1nnn(Cc2cc(C)cc(C)c2)c1CCO | > 100 | 
< 4.00 | CCc1c(CCO)nnn1Cc1ccccc1 | > 100 | 
< 4.00 | CCc1nnn(Cc2ccccc2)c1CCO | > 100 | 
4.56 | Cc1cc(C)cc(Cn2cc(CO)nn2)c1 | > 100 | 
< 4.08 | OCc1cn(Cc2ccccc2)nn1 | > 100 | 
4.62 | CCc1nn(CCO)nc1Cc1cc(Cl)cc(Cl)c1 | 84.7 | 
< 4.00 | CCc1nn(CCO)nc1Cc1cccc(C#N)c1 | > 100 | 
< 4.31 | CCc1nn(CC)nc1C(OC)c1cc(Cl)cc(Cl)c1 (stereo not drawn) | 89 | 
< 4.61 | OCc1cn(Cc2cc(C(F)(F)F)cc(C(F)(F)F)c2)nn1 | > 53.4 | 
